“Also recorded” adds a separate entry of the source.
Legend:
[1] = biological target: xanthine oxidase (Homo sapiens, UniProt P47989); assay: Control reaction for direct inhibition of xanthine oxidase (urate production at 290 nm); format: biochemical; conditions: 6 and 11 μM C7
Procedure: Superoxide dismutase (SOD) activity was assayed by following the inhibition of the reduction of an electron acceptor molecule in the presence of the free-radical generating system xanthine/xanthine oxidase (McCord et al. (1973) Superoxide and Superoxide Dismutase in “Oxidases and Related Redox Systems, vol. I, King et al. eds., University Park press, Baltimore, pp. 51-76). The assay mixture consisted of 50 mM sodium phosphate, pH 7.8, 120 μM xanthine, 0.2 units/ml xanthine oxidase, with acceptor molecule and salen manganese compound, as indicated. Assays were conducted at 27±0.2° C. using a water-jacketed cell holder in a Beckman DU7400 spectrophotometer. In most cases, oxidized cytochrome c, at 0.13 mg/ml, was employed as acceptor and its reduction was monitored spectrophotometrically at 550 nm. In some experiments, nitroblue tetrazolium (NBT), at 80 μM, was substituted for cytochrome c as the acceptor. NBT reduction was also monitored at 550 nm. An estimated extinction coefficient for NBT reduction, 20,800 M^−1cm^−1, determined empirically by exhaustive reduction of NBT in the reaction mixture described above, was employed where indicated. This value agreed well with reported extinction coefficients for reduced tetrazolium dyes. […] Conversion of xanthine to urate was calculated using ε290's of […] for urate and 4050 M^−1cm^−1 for xanthine. […]

[2] = SOD activity, inhibition of cytochrome C reduction by xanthine plus xanthine oxidase (Example 1); format: biochemical
Procedure: The SOD activity of the compounds was determined by evaluating the inhibition of the reduction of cytochrome C produced by the oxygen free radical generating system, xanthine plus xanthine oxidase. Cytochrome C reduction is monitored spectrophotometrically at 550 nm according to the method described in Darr et al. (1987) Arch. Biochem. Biophys. 258: 351, incorporated herein by reference. The concentration of xanthine oxidase is adjusted such that it produces a rate of reduction of cytochrome C at 550 nm of 0.025 absorbance unit per minute. Under these conditions, the amount of SOD activity required to inhibit the rate of cytochrome C reduction by 50 percent (i.e., to a rate of 0.0125 absorbance unit per minute) is defined as one unit of activity. Salen-metal complexes are identified as antioxidants if they have at least 0.1 unit of activity at a concentration of 1 mM under these standard assay conditions.

[3] = test system: Hippocampal slices; assay: Lactic acid-induced lipid peroxidation in hippocampal slices; format: cell-based, rat; conditions: C7 50 μM, 30 mM lactate pH 5.0, 100 minutes
Procedure: Hippocampal slices (400 μm thick) were obtained from Sprague-Dawley rats (150-200 g) and collected in preoxygenated (95% O2/5% CO2) Krebs-Ringer phosphate medium (pH 7.4) containing NaCl 120 mM, KCl 5 mM, CaCl2 1.3 mM, MgCl2 1.2 mM, NaPhosphate 16 mM (pH 7.4) and glucose 10 mM. After 15 minutes preincubation in a water bath at 35° C. under agitation, the buffer was replaced with the same buffer (control) or a modified buffer (lactate buffer) containing NaCl 90 mM, KCl 5 mM, CaCl2 1.3 mM, MgCl2 1.2 mM, NaPhosphate 16 mM and lactic acid 30 mM (pH 5.0). […] After 100 minutes, slices were collected and homogenized in 0.9 ml of TCA 5%, whereas 0.35 ml of TCA 5% was added to 0.5 ml of the incubation medium. Lipid peroxidation was measured by adding 0.25 ml of a thiobarbituric acid reagent (TBAR) to 0.85 ml of the TCA extracts and incubating the mixture for 60 minutes at 85-93° C. Lipids were then extracted with 2×0.5 ml 1-butanol by vortexing for 10 seconds, then centrifuging at 2,000 rpm for 10 minutes. The absorbance of peroxidized lipids in the alcohol phase was measured in a spectrophotometer at 532 nm. Data were expressed as nmoles of malondialdehyde (MDA) using authentic MDA to establish a standard curve. Proteins were measured from an aliquot of the TCA extracts using the method of Bradford and the final results were calculated as nmoles MDA formed/mg protein.

[4] = C7 inactivation in H2O2, HPLC; format: physicochemical; conditions: 100 μM C7, 1 mM H2O2, with 1 mM ABTS
Procedure: Where indicated, 1 mM ABTS was also present. Components were mixed and, after various incubations times, a 30 μl aliquot was injected onto the HPLC. The mixtures were chromatographed on an octadecyl-silica column using a mobile phase consisting of 60% methanol:40% 0.1 M Nacl and a flow rate of 1 ml/min. […] A third component, with a retention time of 4.8 min, was detectable under some conditions; its appearance and disappearance was monitored but it was not further analyzed. In this system, ABTS and its oxidized product had retention times of 3.4 and 3.1-min, respectively, well resolved from the peaks of interest. Absorbance spectra collected during each run allowed the identity of C7 and salicylaldehyde to be verified. All peaks were integrated based upon their absorbance at 240 nm. The results are expressed as the percentage of maximum peak area. […] For the two putative breakdown products, this is equivalent to the largest peak observed during the course of the ˜2000 sec incubation period.

[5] = test system: Rat hippocampal slices in culture; assay: Beta-amyloid peptide-induced cytotoxicity in hippocampal slice cultures; format: cell-based; conditions: C7 25 μM
Procedure: Rat hippocampal slices in culture were incubated with the beta-amyloid peptide (1-42) at the indicated concentrations. Cell viability was assessed by two criteria: release of lactate dehydrogenase (L*H) into the culture medium and staining with propidium […] iodide (PI) which binds to exposed DNA.
Rat hippocampal slice cultures were incubated with the beta-amyloid peptide (1-42) at the indicated concentrations. Cell viability was assessed by two criteria: release of lactate dehydrogenase (L*H) into the culture medium and staining with propidium iod*de (PI) which binds to exposed DNA.

Sequence of xanthine oxidase (P47989 whole entry, species assumed): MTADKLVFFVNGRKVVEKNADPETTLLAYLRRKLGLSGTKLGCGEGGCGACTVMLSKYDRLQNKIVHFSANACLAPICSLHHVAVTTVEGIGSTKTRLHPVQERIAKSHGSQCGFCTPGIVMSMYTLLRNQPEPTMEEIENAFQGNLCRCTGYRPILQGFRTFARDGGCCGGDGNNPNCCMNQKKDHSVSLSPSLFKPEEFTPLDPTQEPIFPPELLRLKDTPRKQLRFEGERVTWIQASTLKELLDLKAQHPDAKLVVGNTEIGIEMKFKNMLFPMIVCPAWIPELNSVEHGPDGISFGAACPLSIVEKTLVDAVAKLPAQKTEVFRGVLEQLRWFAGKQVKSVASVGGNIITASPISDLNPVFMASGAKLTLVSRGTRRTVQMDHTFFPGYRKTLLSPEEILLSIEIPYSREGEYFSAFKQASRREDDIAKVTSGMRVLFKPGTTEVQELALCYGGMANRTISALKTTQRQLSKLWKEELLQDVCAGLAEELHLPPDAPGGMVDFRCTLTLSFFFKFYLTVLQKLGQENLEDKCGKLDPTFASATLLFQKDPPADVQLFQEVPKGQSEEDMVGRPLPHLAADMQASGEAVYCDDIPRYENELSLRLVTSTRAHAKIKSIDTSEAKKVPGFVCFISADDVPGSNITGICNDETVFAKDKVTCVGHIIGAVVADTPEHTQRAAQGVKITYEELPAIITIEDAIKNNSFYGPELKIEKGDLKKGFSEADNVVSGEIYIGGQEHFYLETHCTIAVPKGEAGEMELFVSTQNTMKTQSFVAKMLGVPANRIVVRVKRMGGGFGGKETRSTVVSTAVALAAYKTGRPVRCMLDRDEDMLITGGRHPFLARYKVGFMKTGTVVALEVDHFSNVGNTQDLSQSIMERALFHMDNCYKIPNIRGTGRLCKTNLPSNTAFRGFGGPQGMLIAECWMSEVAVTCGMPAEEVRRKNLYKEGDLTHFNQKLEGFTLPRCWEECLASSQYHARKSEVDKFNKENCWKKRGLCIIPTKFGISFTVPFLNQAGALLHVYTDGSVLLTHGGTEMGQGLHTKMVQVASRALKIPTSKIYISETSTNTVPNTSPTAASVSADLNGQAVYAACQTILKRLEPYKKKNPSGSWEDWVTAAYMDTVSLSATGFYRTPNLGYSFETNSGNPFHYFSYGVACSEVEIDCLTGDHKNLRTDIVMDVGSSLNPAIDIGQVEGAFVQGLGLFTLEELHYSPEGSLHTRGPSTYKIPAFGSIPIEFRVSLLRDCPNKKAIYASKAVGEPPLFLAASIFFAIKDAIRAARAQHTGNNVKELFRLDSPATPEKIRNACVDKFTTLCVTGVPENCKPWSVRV

Structure (SMILES): [Cl][Mn]1[O]c2ccccc2C=NCCN=Cc2ccccc2[O]1 [Compound C7]
- effect on xanthine oxidase activity [1]: no effect; also recorded: without affecting
- SOD Activity ([2]; Example 1, cytochrome C reduction): 575 units/mM
- SOD Activity ([2]; previously found): about 769 units/mM
- lactate-induced increase in lipid peroxidation [3]: totally abolished; also recorded: protects
- C7 peak disappeared rapidly [4]: about 20%
- C7 persisting for the ~2000 sec incubation [4]: 80%
- protection from beta-amyloid peptide-induced cytotoxicity [5]: protect neurons; also recorded: protects neuronal tissue
